According to ChEMBL document CHEMBL1201862, “PubChem BioAssay data set” (2004):
Activity calls are given as the source filed them.

Tests used:
Cytochrome P450 2D6 = Cytochrome P450 2D6 (Homo sapiens, UniProt P10635); assay: qHTS Assay for Inhibitors and Substrates of Cytochrome P450 2D6. [Related pubchem assays: 410 ]; assay type: ADME; conditions: read-out: Potency
[1] = target: T1, Alkaline phosphatase, tissue-nonspecific isozyme (Homo sapiens, UniProt P05186)
T1 sequence (P05186 whole entry): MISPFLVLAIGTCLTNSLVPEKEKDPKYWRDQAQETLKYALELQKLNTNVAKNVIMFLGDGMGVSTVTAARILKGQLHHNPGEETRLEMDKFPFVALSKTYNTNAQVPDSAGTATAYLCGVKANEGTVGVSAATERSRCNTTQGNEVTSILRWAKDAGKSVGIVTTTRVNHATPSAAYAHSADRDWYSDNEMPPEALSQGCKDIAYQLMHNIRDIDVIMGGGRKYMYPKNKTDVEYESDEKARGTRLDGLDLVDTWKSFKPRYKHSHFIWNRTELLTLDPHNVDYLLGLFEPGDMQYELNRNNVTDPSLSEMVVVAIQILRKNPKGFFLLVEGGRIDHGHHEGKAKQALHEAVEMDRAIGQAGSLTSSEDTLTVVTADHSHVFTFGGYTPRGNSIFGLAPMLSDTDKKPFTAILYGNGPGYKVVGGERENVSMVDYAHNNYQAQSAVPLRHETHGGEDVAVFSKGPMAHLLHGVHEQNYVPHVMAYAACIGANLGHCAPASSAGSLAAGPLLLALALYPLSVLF

[2] = target: T2, High affinity choline transporter 1 (Homo sapiens, UniProt Q9GZV3); assay: human choline transporter blockers, potency – cell-based, 10-point CRC, membrane potential dye, dose response (AID 588401); assay type: functional;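 note: membrane potential dye fluorescence of choline-evoked depolarization via CHT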
T2 sequence (Q9GZV3 whole entry): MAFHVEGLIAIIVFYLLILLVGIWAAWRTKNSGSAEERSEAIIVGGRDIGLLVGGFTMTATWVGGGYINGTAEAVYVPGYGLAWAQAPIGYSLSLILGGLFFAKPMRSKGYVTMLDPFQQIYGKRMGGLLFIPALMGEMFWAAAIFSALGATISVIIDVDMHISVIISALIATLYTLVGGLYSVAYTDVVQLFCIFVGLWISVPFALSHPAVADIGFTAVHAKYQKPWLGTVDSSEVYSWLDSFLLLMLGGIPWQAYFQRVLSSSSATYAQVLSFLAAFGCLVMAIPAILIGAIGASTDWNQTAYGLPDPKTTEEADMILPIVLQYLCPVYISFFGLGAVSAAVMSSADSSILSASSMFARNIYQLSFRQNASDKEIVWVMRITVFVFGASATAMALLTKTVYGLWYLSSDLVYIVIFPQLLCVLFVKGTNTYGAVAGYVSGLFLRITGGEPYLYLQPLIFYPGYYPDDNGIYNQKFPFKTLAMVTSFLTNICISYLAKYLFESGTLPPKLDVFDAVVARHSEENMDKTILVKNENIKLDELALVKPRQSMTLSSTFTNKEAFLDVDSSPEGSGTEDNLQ

[3] = CCR5-tropic HIV-1 fusion blockers – cell-based, CCR5-tropic Env, dose response (AID 2279); assay type: functional
[4] = target: T2, High affinity choline transporter 1; assay: human choline transporter blockers, potency – cell-based, 5-point CRC, membrane potential dye, dose response (AID 504840); assay type: functional
[5] = target: T3, Polyadenylate-binding protein 1 (Homo sapiens, UniProt P11940); assay: MLLE binding blockers, Cy5 peptide tracer – biochemical, fluorescence polarization, Cy5-PAM2 peptide, secondary, miRNA deadenylation inhibitor project, dose response (AID 602260); assay type: functional; conditions: read-out: IC50_Mean
[6] = target: T3, Polyadenylate-binding protein 1; assay: MLLE domain peptide-binding blockers, IC50 – biochemical, fluorescence polarization, FITC-PAM2 peptide, dose response (AID 602259); assay type: functional; conditions: read-out: IC50_Mean
[7] = target: C-C chemokine receptor type 6 (Homo sapiens, UniProt P51684); assay: antagonism of CCR6 beta-arrestin recruitment – cell-based, luminescent beta-arrestin readout, dose response (AID 504728); assay type: functional
Beta-galactosidase = Beta-galactosidase (Escherichia coli, UniProt Q8VNN2); assay: detection-enzyme interference by beta-gal modulators – biochemical, E. coli enzyme, set 3, artefact control for CCR6 antagonist project, dose response (AID 504712); assay type: functional
[8] = A Cell Based Assay for the Identification of Probe candidate Compounds with Anti- Venezuelan Equine Encephalitis virus. [Related pubchem assays: 2409, 2419, 1621, 2238, 2405, 2024, 2065, 2402, 2414, 1635, 1650, 2244 ]; assay type: functional
[9] = A Cell Based Secondary Assay To Explore Cytotoxicity of Compounds that Sensitize Mycobacterium Tuberculosis to Beta-Lactam Antibiotics.; assay type: functional
[10] = target: Glucose-6-phosphate 1-dehydrogenase (Homo sapiens, UniProt P11413); assay: inhibition of Homo sapiens G6PD, dose series – biochemical, fluorescence, selectivity assay for P. falciparum G6PD inhibitor project, dose response (AID 504792); assay type: functional
[11] = target: T4, Tyrosyl-DNA phosphodiesterase 2 (Homo sapiens, UniProt O95551); assay: potency against TDP2 phosphodiesterase activity – biochemical, epi absorbance, IC50, dose response (AID 743297)
T4 sequence (O95551 whole entry): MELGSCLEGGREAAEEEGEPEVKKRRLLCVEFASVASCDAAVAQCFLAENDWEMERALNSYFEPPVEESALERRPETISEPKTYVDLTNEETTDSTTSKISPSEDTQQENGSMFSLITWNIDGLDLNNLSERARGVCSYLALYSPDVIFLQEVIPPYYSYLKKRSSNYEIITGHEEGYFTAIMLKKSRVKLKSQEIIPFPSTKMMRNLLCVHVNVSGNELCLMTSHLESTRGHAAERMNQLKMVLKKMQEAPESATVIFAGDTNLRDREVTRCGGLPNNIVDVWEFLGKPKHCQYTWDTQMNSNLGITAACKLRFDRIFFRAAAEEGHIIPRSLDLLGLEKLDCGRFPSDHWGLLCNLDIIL

[12] = target: T5, Histone-lysine N-methyltransferase NSD2 (Homo sapiens, UniProt O96028); assay type: biochemical
T5 sequence (O96028 whole entry): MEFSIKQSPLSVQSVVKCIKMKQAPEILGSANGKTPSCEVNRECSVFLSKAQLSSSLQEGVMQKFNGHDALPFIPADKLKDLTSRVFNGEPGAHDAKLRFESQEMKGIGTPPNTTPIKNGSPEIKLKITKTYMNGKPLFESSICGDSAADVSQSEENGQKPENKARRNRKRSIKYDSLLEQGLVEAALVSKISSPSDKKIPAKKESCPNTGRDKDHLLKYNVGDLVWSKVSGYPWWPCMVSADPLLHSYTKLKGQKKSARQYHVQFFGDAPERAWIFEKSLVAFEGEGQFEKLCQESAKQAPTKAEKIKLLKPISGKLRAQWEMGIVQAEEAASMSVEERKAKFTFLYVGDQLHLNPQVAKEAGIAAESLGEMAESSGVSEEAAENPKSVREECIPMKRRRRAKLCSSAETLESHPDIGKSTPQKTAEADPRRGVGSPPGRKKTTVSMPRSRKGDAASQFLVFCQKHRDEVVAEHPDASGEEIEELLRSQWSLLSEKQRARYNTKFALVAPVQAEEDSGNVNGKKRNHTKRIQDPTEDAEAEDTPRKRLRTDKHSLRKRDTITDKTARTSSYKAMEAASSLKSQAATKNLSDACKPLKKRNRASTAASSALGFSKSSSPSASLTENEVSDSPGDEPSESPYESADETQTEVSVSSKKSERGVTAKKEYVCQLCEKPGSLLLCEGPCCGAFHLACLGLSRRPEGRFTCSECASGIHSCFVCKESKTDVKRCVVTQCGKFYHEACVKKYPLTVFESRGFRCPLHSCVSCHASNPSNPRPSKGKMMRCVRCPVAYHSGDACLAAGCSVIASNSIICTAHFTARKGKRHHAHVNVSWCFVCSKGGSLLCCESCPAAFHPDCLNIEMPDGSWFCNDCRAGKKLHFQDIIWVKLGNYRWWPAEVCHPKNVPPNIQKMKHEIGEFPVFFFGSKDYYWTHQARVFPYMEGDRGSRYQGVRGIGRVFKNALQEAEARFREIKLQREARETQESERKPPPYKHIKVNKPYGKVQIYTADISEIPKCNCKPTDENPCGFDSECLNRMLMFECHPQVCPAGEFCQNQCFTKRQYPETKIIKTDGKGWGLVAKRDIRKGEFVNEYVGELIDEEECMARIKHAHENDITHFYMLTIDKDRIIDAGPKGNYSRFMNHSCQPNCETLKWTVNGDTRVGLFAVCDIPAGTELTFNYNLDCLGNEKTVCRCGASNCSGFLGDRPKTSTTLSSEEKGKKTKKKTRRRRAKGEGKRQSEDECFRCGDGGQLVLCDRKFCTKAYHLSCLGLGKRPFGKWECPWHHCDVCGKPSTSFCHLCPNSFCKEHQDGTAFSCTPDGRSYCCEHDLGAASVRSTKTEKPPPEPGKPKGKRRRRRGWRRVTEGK

Hexokinase HKDC1 = target: T6, Hexokinase HKDC1 (Homo sapiens, UniProt Q2TB90); assay: inhibition of HKDC1 glucose phosphorylation – biochemical, W721R variant, dose response (AID 504729); assay type: functional
T6 sequence (Q2TB90 whole entry): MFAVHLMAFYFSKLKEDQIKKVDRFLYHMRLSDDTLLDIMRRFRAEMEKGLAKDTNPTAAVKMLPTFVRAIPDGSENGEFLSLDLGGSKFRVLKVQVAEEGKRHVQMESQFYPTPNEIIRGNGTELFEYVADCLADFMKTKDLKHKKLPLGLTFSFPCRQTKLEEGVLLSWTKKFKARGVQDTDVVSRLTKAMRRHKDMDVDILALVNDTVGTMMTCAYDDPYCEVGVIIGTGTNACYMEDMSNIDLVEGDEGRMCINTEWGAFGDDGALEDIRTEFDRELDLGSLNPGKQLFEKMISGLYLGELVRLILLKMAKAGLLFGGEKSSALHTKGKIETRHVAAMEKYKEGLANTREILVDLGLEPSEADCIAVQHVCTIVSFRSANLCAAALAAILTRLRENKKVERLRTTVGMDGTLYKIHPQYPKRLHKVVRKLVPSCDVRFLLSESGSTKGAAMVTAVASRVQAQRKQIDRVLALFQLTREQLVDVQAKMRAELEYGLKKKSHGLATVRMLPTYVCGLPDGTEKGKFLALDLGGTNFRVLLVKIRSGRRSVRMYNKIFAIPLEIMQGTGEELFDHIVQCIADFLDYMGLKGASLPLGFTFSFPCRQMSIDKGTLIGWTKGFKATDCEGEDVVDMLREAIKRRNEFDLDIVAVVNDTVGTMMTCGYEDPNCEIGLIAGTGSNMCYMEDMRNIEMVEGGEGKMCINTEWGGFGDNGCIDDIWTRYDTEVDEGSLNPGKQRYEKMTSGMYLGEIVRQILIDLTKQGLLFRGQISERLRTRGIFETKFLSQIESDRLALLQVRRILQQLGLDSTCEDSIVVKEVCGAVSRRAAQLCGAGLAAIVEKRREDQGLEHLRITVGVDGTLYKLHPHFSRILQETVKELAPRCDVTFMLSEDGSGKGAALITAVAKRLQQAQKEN

[13] = bead-based luminescence quenchers, dual-tagged ARNT – biochemical, AlphaScreen, cherry-pick, artefact control for ARNT-TACC3 interaction inhibitor project, dose response (AID 651705); assay type: functional;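 note: AlphaScreen bead proximity signal that flags compounds interfering with the detection technology; potency reflects signal decrease which marks the compound as an assay artifact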
[14] = target: Melanin-concentrating hormone receptor 1 (Homo sapiens, UniProt Q99705); assay: Late-stage fluorescence-based counterscreen for antagonists of the G-protein coupled receptor 7 (GPR7): cell-based dose response assay to identify antagonists of the melanin-concentrating hormone receptor 1 (MCHR1). [Related pubchem assays (depositor defined):AID1861, AID1880, AID1952, AID2148, AID2251, AID2257, AID485339]; assay type: functional;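 note: stimulated with 30 nM MCH peptide agonist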
[15] = target: Glyceraldehyde-3-phosphate dehydrogenase (Homo sapiens, UniProt P04406)
[16] = target: Cyclin-dependent kinase 5/CDK5 activator 1 (Homo sapiens, UniProt Q00535); assay: blockade of human CDK5 activity – biochemical, cherry-picked samples, set 2, dose response (AID 504545)
Cyclin-dependent kinase 5/CDK5 activator 1, sequence (Q00535 whole entry): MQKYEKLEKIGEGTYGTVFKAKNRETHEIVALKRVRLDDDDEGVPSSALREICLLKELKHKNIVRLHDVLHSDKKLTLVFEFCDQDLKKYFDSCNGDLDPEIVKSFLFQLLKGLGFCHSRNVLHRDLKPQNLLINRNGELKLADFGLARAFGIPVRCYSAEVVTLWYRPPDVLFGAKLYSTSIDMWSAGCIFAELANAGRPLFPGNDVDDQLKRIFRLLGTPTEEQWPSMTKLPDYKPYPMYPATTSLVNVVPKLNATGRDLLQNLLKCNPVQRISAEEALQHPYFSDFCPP
Cyclin-dependent kinase 5/CDK5 activator 1, sequence (Q15078 whole entry, further chain): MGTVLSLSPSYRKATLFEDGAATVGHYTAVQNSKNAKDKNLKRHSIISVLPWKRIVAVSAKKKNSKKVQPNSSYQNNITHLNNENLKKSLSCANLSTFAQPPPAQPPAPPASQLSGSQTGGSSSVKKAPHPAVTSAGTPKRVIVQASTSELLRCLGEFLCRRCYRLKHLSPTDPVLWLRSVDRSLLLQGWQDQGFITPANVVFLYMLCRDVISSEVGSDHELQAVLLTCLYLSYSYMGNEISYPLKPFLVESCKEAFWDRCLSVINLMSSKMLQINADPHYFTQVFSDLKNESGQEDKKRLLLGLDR

T3 sequence (P11940 whole entry, the tested form may be a part): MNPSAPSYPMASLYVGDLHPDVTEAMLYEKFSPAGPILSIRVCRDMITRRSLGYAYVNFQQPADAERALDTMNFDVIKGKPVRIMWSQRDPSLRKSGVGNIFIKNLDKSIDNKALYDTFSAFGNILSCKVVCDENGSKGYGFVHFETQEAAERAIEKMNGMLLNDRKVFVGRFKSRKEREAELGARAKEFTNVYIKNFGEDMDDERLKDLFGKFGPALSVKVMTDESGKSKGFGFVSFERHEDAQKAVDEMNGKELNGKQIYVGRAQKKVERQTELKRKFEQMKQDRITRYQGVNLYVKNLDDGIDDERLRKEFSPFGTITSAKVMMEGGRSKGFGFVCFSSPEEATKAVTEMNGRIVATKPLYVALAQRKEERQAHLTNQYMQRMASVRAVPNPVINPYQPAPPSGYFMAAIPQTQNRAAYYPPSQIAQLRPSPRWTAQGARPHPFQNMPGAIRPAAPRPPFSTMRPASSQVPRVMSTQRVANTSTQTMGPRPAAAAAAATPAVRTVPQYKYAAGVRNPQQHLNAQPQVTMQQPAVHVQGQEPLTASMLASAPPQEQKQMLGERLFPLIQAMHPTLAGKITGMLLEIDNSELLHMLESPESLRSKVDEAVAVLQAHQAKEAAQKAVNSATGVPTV
Glyceraldehyde-3-phosphate dehydrogenase, sequence (P04406 whole entry): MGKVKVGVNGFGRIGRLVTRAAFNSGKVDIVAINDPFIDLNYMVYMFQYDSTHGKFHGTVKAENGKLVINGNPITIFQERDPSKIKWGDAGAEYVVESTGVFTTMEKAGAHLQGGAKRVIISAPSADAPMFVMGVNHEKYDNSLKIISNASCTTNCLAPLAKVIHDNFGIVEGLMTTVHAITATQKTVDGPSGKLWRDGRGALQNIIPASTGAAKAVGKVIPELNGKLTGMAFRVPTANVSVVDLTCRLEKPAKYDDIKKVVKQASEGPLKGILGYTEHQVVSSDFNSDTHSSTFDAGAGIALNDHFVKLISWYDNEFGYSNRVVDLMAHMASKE
Cytochrome P450 2D6, sequence (P10635 whole entry): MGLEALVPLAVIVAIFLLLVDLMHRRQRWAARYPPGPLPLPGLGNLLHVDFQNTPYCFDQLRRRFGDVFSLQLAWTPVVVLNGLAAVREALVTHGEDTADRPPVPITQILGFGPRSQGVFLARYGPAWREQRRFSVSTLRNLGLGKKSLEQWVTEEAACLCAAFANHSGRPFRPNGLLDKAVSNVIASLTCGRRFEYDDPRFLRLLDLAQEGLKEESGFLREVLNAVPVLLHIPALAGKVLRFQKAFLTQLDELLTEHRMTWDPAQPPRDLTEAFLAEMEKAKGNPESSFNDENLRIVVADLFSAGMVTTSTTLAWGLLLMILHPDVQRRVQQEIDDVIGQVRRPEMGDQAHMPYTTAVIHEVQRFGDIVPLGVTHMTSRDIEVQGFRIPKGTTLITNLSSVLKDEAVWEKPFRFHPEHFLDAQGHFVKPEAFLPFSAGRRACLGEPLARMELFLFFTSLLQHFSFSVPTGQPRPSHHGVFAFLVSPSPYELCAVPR
Melanin-concentrating hormone receptor 1, sequence (Q99705 whole entry): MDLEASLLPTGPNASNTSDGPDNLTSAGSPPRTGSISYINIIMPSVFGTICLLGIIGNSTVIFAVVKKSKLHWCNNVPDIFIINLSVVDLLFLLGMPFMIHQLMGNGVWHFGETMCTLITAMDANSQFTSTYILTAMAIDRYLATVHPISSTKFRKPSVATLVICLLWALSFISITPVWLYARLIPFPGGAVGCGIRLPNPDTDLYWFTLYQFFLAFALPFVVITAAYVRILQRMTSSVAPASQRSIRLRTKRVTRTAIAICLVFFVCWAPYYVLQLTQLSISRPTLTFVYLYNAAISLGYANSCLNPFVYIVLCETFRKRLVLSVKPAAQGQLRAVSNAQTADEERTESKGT
C-C chemokine receptor type 6, sequence (P51684 whole entry): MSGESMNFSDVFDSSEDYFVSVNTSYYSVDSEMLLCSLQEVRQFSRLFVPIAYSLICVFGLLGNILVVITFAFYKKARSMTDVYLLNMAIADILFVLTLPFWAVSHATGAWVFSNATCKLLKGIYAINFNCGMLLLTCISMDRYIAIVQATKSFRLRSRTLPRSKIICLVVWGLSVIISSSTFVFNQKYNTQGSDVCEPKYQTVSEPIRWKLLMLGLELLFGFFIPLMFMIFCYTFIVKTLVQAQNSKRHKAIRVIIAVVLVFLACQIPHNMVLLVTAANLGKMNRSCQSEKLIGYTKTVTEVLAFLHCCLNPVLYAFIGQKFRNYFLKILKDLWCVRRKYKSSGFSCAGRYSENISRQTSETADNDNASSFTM
Glucose-6-phosphate 1-dehydrogenase, sequence (P11413 whole entry): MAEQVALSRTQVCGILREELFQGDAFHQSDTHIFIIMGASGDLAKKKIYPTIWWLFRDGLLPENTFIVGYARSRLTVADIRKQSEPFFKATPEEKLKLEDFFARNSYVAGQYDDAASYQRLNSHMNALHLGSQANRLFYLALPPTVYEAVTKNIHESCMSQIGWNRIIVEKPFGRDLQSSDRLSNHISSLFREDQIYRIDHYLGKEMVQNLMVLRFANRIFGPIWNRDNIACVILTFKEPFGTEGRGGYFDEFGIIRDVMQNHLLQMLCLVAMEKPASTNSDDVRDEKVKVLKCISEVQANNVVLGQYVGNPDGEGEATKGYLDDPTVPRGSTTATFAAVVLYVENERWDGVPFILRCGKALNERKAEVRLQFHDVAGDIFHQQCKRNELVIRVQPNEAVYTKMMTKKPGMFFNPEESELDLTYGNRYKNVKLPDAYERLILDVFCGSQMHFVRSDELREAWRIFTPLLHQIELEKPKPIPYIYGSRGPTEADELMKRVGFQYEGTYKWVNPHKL
Beta-galactosidase, sequence (Q8VNN2 whole entry): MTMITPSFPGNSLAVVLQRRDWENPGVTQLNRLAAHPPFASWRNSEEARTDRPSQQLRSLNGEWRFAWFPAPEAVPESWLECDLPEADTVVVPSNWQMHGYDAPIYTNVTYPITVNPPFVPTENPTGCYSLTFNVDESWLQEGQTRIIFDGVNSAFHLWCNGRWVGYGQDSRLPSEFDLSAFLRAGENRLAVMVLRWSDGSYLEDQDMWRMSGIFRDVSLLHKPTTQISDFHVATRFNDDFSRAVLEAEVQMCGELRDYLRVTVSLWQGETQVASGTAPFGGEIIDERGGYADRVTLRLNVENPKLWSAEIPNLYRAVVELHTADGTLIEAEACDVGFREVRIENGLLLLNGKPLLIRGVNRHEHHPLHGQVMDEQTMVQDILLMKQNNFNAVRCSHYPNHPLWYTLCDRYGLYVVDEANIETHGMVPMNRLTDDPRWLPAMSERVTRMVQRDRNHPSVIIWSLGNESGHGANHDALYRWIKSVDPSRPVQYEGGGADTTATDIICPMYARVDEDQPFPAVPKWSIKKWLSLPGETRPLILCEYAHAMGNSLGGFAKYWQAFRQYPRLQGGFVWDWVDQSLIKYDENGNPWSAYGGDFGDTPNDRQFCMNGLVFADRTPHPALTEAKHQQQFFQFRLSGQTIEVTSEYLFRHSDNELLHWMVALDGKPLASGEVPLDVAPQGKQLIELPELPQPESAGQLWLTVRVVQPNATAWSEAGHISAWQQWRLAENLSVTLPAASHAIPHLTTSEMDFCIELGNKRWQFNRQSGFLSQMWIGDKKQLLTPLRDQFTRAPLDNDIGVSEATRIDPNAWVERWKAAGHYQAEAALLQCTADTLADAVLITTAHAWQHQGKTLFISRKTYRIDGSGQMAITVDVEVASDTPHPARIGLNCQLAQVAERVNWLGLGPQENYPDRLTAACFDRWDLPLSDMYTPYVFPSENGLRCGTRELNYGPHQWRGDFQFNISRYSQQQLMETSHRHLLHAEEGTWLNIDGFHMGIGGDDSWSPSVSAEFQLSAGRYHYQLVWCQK

With `CN1CCc2cc3c(cc2[C@@H]1[C@H]1OC(=O)c2c1ccc1c2OCO1)OCO3` the AC50 (Cytochrome P450 2D6) was 10 µM (inconclusive).
In the case of `COc1ccc(-n2c(=O)c3ccccc3n(CC(=O)NC3CCCCC3)c2=O)cc1OC`, the EC50 [1] was > 100 µM (not active).
In the case of `O=c1cccc2n1C[C@@H]1C[C@H]2CN2CCCC[C@H]12`, the AC50 (Cytochrome P450 2D6) was 25.1 µM (inconclusive).
With `OCCN(CCO)Cc1nc(O)c2c(n1)-c1ccccc1CC21CCCCC1` the EC50 [1] was 76.4 µM (not active).
With `CS(=O)(=O)C1=NSC2=NC(=O)/C(=C\c3ccc(OS(=O)(=O)c4ccccc4)cc3)C(=N)N21` the IC50 [2] was 5.01 µM (active), the IC50 [3] was 39.3 µM (active) and the IC50 [4] was 4.17 µM (active).
For `CCCCC(=O)NC(=S)Nc1ccccc1C(=O)Nc1ccccc1`, the IC50 [5] was > 66 µM (inactive), the IC50 [6] was > 66 µM (inactive) and the IC50 [7] was > 66.6 µM (inactive). The IC50 (Beta-galactosidase) was > 66.6 µM (inactive).
With `COc1ccc(NC(=O)CSc2nc3ccccc3c(=O)n2-c2ccc(F)cc2)cc1` the IC50 [8] was > 66.6 µM (active).
For `COc1ccc(S(=O)(=O)N(C(=O)c2ccncc2)c2ccc3oc4c(c3c2)CCCC4)cc1`, the CC50 [9] was > 40 µM (active).
In the case of `CCN1C(=O)C(=CNNC(=O)c2ccccc2)C(=O)N(CC)C1=S`, the CC50 [9] was > 40 µM (active).
For `CC(N=C1C=C(O)c2cccnc2C1=O)C(O)c1ccccc1` (centres undefined), the IC50 [10] was 33.2 µM (inactive), the IC50 [11] was 5.45 µM (active) and the AC50 [12] was 0.754 µM (active). For the same molecule, the IC50 (Hexokinase HKDC1) was 18.5 µM (active) and the AC50 [13] was 111 µM (active).
With `COc1ccc(Oc2c(Cl)cnn(-c3cccc(Cl)c3)c2=O)cc1` the IC50 [14] was 10.5 µM (inactive).
In the case of `COc1ccc(Oc2c(Cl)cnn(-c3cccc(C)c3)c2=O)cc1`, the IC50 [14] was 5.4 µM (active).
For `COCCNC(=O)c1cc(-c2ccc(Cl)cc2Cl)n[nH]1`, the IC50 [15] was > 10 µM (inconclusive).
In the case of `COc1ccc(C(=O)c2sc(Nc3ccccc3)nc2N)cc1`, the AC50 [16] was 16.8 µM (active).
For `CCOc1cc(C)c(Cl)cc1S(=O)(=O)Nc1cccnc1`, the IC50 [15] was > 100 µM (not active).
